Measured values published in PMC12830989, “Subcellular glycan-mannose receptor binding kinetics correlate with myeloid cell function” (Nature Communications, 2025).
Values joined by “and” are separate entries in the source; they are usually repeats but may differ in a detail not shown here. Equal values may be shown once. sCy5 = sulfo-Cy5

How the values were obtained:
WT BMDC (CD11c+) = test: Glycan SLP uptake by flow cytometry (phagocytic index), WT BMDC; type: cell-based, mouse; settings: for phagocytic index: Fig 4d source data, BMDC incubated 1 h with probe, CD11c+ cells, per experiment, two technical replicates
Procedure: 2.5 x 10^5 WT, MR^−/− BMDC or BMDM were seeded after treatment with polarizing stimulus as described below in a 96 well v-bottom plate (Sarstedt, 82.1583001). The next day, Glycan SLP probes were added to the cells at 250 nM and incubated for 1 h at 37 °C. Active uptake was halted by addition of ice-cold PBS and washed twice with PBS + 2% FCS + 2 mM EDTA (300 rcf, 5 min., rt). Cells were stained with a selection of the following stains and antibodies: Zombie Yellow (Biolegend, 423103, 1:500), TruStain FcX (Biolegend, cat no 101319, 1:100), CD11c - eFluor450 (clone: N418, eBioscience, cat no 48-0114-82, dilution 1:200), CD206-AF488 or AF647 (clone: MR5D3, Biorad, MCA2235A488T, 1:20), CD86-PerCP (Biolegend, cat no 105025, clone GL-1, 1:200), F4/80-APC-Cy7 (Biolegend, cat no 123117, clone BM8, dilution 1:400), MHC-II-AF488 (Biolegend, cat no 107615, clone M5/114.15.2, dilution 1:1000) for 30 min. on ice. Then cells were washed twice with PBS + 2% FCS + 2 mM EDTA and acquired on Guava EasyCyte 12HT. For BMDM uptake and characterization, an identical procedure was followed but acquisition was performed on Sony ID7000 spectral flow cytometer. Analysis was performed using FlowJo v8. Phagocytic index (PI) was calculated according to equation 1. Statistical analysis and plotting were performed using GraphPad Prism V10.1 PI=%sCy5^+cellsxMFIsCy5^+cells−%sCy5^−cellsxMFIsCy5^−cells

MR^−/− BMDC = test: Glyco-PAINT-APP single-molecule glycan binding on live MR-/- BMDC; set-up: species or system mouse; settings: Suppl. Fig 9, glycan SLP, median
Procedure: Single molecule imaging was performed on a Nikon Ti2 N-STORM system equipped with TIRF module, Z piezo element, perfect focus system for axial drift correction and an OkoLab incubator with temperature and CO2 controller (37 °C and 5% CO2) for live-cell imaging. Recordings were acquired using the 647 nm excitation laser (160 mW, 1.9 kW/cm^2). Upon laser excitation, fluorescence was collected by a 100x 1.49 NA oil-immersion objective, passed through a quad-band dichroic mirror (97335 Nikon), and detected by a Hamamatsu ORCA Flash 4.0 CMOS camera with 160 nm pixel size. The signal was collected using the following settings: 512 × 512 pixel region, no binning, pixel depth 16-bit, exposure time 50 ms, live-cell observation and 2D-STORM (lens out), zoom 1x, lens x0.4, and for live-cell observation at 37 °C, the correction collar was set to position 8160.
5 x 10^4 CHO-MR or 1 x 10^5 WT, MR^−/− BMDC or BMDM were seeded in 8-well glass-bottomed microscopy slides (Ibidi, 80827) in complete medium. After equilibration in the microscope incubator, fluorescent glycan was added at 5 nM for CHO-MR and 10 nM for BMDC or BMDM experiments. Then, cells were brought into focus using brightfield illumination and 2000 frames (at 50 ms intervals) were recorded within a single field-of-view at 40–60% of maximum 647 nm laser power using TIRF illumination. For indicated experiments, Cytochalasin D (Focus Biomolecules) was added to a final concentration of 10 µM for 30 min prior to acquisition.
Processing of recordings using Glyco-PAINT-APP was performed as described in a step-by-step procedure in the Supplementary Software Manual in the Supplementary Information and accompanying Supplementary Videos 1 and 2. For the TrackMate processing, a batch file (Experiment Info.csv) containing the experiment metadata and tracking parameters was created. Threshold values were set to 5, 10 or 15 such that no more than 1.500.000 spots were detected. Recordings were then processed in TrackMate using the ‘Run TrackMate Batch’ plugin provided by the Glyco-PAINT-APP. Through this plugin, spot detection and tracking by TrackMate[70] was performed as indicated in the batch file using the Simple LAP tracker algorithm with a maximum frame gap of 3, a max linking distance of 0.6 μm and a gap closing max distance of 1.2 μm. Tracks with only two spots were discarded. For the parameter sensitivity analysis, each tracking or spot detection was varied as indicated, whilst the others were kept at aforementioned values (Basis scenario).
With the Glyco-PAINT-APP utility ‘Generate Squares’, a grid of squares was overlaid, and kinetic properties for each square were calculated. Default parameters for grid processing are (deviations are mentioned in figure captions): Nr of Squares in row 20, Minimum Tracks to Calculate Tau 20, Min allowable R Squared 0.1, Min Required Density Ratio 2, Maximum Allowable Variability 10 and Neighbour Mode Free.
For every recording, a background track count was calculated by averaging the track count of the 40 (10% of the total number of squares) least dense squares. Only squares for which the track count exceeded the Min Required Density Ratio of 2 were considered (and the remaining ignored as background). For each square, the variability was calculated and only squares for which the variability was less than the Maximum Allowable Variability of 10 were considered. For squares meeting both the Minimum Required Density Ratio and Maximum Allowable Variability criteria, and containing at least the Minimum Tracks to Calculate Tau kinetic parameters, including kon, koff and MSD were calculated as in Riera et al.[10], or copied from the TrackMate Tracks table output (for velocity, displacement, and track duration).

| Substance | koff−1 (MR^−/− BMDC) [ms] | kon (MR^−/− BMDC) [evts μm−2 sec−1] | phagocytic index (WT BMDC (CD11c+)) | uptake (phagocytic index) by BMDC (WT BMDC (CD11c+); 1 h incubation, sCy5 signal by flow cytometry) |
| --- | --- | --- | --- | --- |
| Ac-Lys(Man)-Gly-Lys(Man)-TEG-Asp-Glu-Val-Ser-Gly-Leu-Glu-Gln-Leu-Glu-Ser-Ile-Ile-Asn-Phe-Glu-Lys-Leu-Ala-Ala-Ala-Ala-Ala-Lys(sCy5)-NH2 ({Ac-K(Man)-Gly-K(Man)-TEG}-DEVSGLEQLESIINFEKLAAAAAK(sCy5)-NH2) [2 Mono(2), bivalent monomannosylated OVA SLP with sulfo-Cy5] | 151 | 2 | 468.878 and 326.94 and 575.997 and 867.184 and 474 and -18 | – |
| Ac-Lys(Man)-TEG-Asp-Glu-Val-Ser-Gly-Leu-Glu-Gln-Leu-Glu-Ser-Ile-Ile-Asn-Phe-Glu-Lys-Leu-Ala-Ala-Ala-Ala-Ala-Lys(sCy5)-NH2 ({Ac-K(Man)-TEG}-DEVSGLEQLESIINFEKLAAAAAK(sCy5)-NH2) [1 Mono(1), monovalent monomannosylated OVA SLP with sulfo-Cy5] | 182 | 6.2 | 18.2246 and 7.8718 and 19.8915 and 23.9776 and -43 and 24 | – |
| Ac-Lys(triMan)-TEG-Asp-Glu-Val-Ser-Gly-Leu-Glu-Gln-Leu-Glu-Ser-Ile-Ile-Asn-Phe-Glu-Lys-Leu-Ala-Ala-Ala-Ala-Ala-Lys(sCy5)-NH2 (DEVSGLEQLESIINFEKLAAAAAK; Ac-Lys(triMan)-TEG, sulfo-Cy5, C-amide; printed: Asp-Glu-Val-Ser-Gly-Leu-Glu-Gln-Leu-Glu-Ser-Ile-Ile-Asn-Phe-Glu-Lys-Leu-Ala-Ala-Ala-Ala-Ala-Lys) [1 Tri(4), monovalent trimannosylated OVA SLP with sulfo-Cy5] | 160 | 6 | 866.48 and 744.547 and 660.373 and 1168.46 and 1459 and 1224 | – |

Now from value to substance, other results behind:

| koff−1 (MR^−/− BMDC) [ms] | kon (MR^−/− BMDC) [evts μm−2 sec−1] | Substance | phagocytic index (WT BMDC (CD11c+)) | uptake (phagocytic index) by BMDC (WT BMDC (CD11c+); 1 h incubation, sCy5 signal by flow cytometry) |
| --- | --- | --- | --- | --- |
| 180 | 6.3 | Ac-Lys(Man)-Lys(Man)-Lys(Man)-Lys(Man)-Lys(Man)-Lys(Man)-TEG-Asp-Glu-Val-Ser-Gly-Leu-Glu-Gln-Leu-Glu-Ser-Ile-Ile-Asn-Phe-Glu-Lys-Leu-Ala-Ala-Ala-Ala-Ala-Lys(sCy5)-NH2 ({Ac-K(Man)-K(Man)-K(Man)-K(Man)-K(Man)-K(Man)-TEG}-DEVSGLEQLESIINFEKLAAAAAK(sCy5)-NH2) [6 Mono(3), hexavalent monomannosylated OVA SLP with sulfo-Cy5] | 351.961 and 267.849 and 647.297 and 867.13 and 676 and 415 | – |
| 141 | 4.6 | Ac-Lys(triMan)-Gly-Lys(triMan)-TEG-Asp-Glu-Val-Ser-Gly-Leu-Glu-Gln-Leu-Glu-Ser-Ile-Ile-Asn-Phe-Glu-Lys-Leu-Ala-Ala-Ala-Ala-Ala-Lys(sCy5)-NH2 (DEVSGLEQLESIINFEKLAAAAAK; two Lys(triMan), TEG, sulfo-Cy5, C-amide; printed: Asp-Glu-Val-Ser-Gly-Leu-Glu-Gln-Leu-Glu-Ser-Ile-Ile-Asn-Phe-Glu-Lys-Leu-Ala-Ala-Ala-Ala-Ala-Lys) [2 Tri(5), bivalent trimannosylated OVA SLP with sulfo-Cy5] | 739.67 and 711.569 and 1725.6 and 1909.99 and 2022 and 1371 | most effectively taken up |
| 115 | 1.1 | Ac-Lys(triMan)-Lys(triMan)-Lys(triMan)-Lys(triMan)-Lys(triMan)-Lys(triMan)-TEG-Asp-Glu-Val-Ser-Gly-Leu-Glu-Gln-Leu-Glu-Ser-Ile-Ile-Asn-Phe-Glu-Lys-Leu-Ala-Ala-Ala-Ala-Ala-Lys(sCy5)-NH2 (DEVSGLEQLESIINFEKLAAAAAK; six Lys(triMan), TEG, sulfo-Cy5, C-amide; printed: Asp-Glu-Val-Ser-Gly-Leu-Glu-Gln-Leu-Glu-Ser-Ile-Ile-Asn-Phe-Glu-Lys-Leu-Ala-Ala-Ala-Ala-Ala-Lys) [6 Tri(6), hexavalent trimannosylated OVA SLP with sulfo-Cy5] | 418.118 and 415.333 and 1097.76 and 913.574 and 294 and 434 | – |
